In the assay the target is truncated PI3Kα (p110α/iSH2 p85α) (Homo sapiens (Human), UniProt P42336). Briefly: PI3KA_Act fluorescence polarization kinase assay (Ki). The format is biochemical. To be noted: 1 mM ATP. The method in brief:
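p110α/iSH2 p85α (0.5 nM) was reacted with 30 μM sonicated PIP2 in 50 mM HEPES pH 7.4, 150 mM NaCl, 5 mM MgCl2, 1 mM DTT and 0.05% CHAPS for 30 min at room temperature, then stopped with EDTA. PIP3 was detected by fluorescence polarization (GST-Grp1 PH domain/TAMRA-PIP3), and Ki came from a Morrison tight-binding fit.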
truncated PI3Kα (p110α/iSH2 p85α), sequence (P42336 whole entry, the tested form may be a part): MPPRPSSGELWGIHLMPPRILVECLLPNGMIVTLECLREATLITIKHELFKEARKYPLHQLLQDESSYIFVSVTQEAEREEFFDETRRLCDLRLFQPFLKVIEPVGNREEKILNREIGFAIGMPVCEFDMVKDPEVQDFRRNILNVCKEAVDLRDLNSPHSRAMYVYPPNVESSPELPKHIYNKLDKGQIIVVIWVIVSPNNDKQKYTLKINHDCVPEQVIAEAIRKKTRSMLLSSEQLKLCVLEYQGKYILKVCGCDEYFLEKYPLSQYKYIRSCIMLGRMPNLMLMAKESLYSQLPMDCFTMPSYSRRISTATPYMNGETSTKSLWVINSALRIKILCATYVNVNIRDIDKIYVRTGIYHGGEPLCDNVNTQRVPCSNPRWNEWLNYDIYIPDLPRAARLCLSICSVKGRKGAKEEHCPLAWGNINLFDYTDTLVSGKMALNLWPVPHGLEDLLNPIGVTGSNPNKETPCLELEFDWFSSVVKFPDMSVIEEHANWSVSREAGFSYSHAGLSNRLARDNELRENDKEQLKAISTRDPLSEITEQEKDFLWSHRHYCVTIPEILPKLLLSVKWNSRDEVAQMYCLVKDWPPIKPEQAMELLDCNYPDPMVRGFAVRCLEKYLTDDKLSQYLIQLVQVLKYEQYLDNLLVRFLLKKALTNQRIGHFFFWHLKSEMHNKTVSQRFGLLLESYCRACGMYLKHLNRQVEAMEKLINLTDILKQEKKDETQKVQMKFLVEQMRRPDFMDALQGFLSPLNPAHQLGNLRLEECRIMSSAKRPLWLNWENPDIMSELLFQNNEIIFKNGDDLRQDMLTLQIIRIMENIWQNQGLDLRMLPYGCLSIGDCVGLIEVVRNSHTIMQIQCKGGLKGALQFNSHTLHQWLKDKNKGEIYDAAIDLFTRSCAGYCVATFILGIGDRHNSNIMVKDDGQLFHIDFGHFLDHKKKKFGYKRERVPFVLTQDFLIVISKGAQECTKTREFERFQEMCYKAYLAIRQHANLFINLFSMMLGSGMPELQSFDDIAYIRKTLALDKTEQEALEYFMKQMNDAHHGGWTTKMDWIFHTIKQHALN
On to `COCCC(=O)N1CC(N2CCc3c(-c4cnc(N)nc4)nc(N4CCOCC4)nc32)C1` [Example 221], for which the “PI3KA_Act Ki” value was found to be 1.291 nM.

In the case of `CC1(N2CCc3c(-c4cnc(N)nc4)nc(N4CCOCC4)nc32)CCNCC1.Cl` [Example 430, 5-[7-(4-methylpiperidin-4-yl)-2-(morpholin-4-yl)-6,7-dihydro-5H-pyrrolo[2,3-d]pyrimidin-4-yl]pyrimidin-2-amine hydrochloride], the “PI3KA_Act Ki” value is 0.785 nM.

For `C[C@]1(N2CCc3c(-c4cnc(N)nc4)nc(N4CCOCC4)nc32)CCN(C(=O)[C@@H](N)C(F)(F)F)C1.Cl` [Example 313, (2R)-2-amino-1-{(3S)-3-[4-(2-aminopyrimidin-5-yl)-2-(morpholin-4-yl)-5,6-dihydro-7H-pyrrolo[2,3-d]pyrimidin-7-yl]-3-methylpyrrolidin-1-yl}-3,3,3-trifluoropropan-1-one hydrochloride], the “PI3KA_Act Ki” value is on record as 0.128 nM.

Take `C[C@@]1(N2CCc3c(-c4cnc(N)nc4)nc(N4CCOCC4)nc32)CCN(C(=O)N2CC(O)C2)C1` [Example 365, {(3R)-3-[4-(2-aminopyrimidin-5-yl)-2-(morpholin-4-yl)-5,6-dihydro-7H-pyrrolo[2,3-d]pyrimidin-7-yl]-3-methylpyrrolidin-1-yl}(3-hydroxyazetidin-1-yl)methanone]: the “PI3KA_Act Ki” value is 0.063 nM.

As to `CC(C(=O)O)C(=O)N1CC[C@](C)(N2CCc3c(-c4cnc(N)nc4)nc(N4CCOCC4)nc32)C1` (stereo partly drawn) [Example 320, 3-{(3S)-3-[4-(2-aminopyrimidin-5-yl)-2-(morpholin-4-yl)-5,6-dihydro-7H-pyrrolo[2,3-d]pyrimidin-7-yl]-3-methylpyrrolidin-1-yl}-2-methyl-3-oxopropanoic acid], the “PI3KA_Act Ki” value is given as 0.318 nM.

As to `C[C@H]1COCCN1c1nc(-c2cnc(N)nc2)c2c(n1)N(C1CN(S(=O)(=O)C(F)(F)F)C1)CC2` [Example 163], the “PI3KA_Act Ki” value came to 0.188 nM.

On to `CC(C)[C@@H](N)C(=O)N1CC[C@](C)(N2CCc3c(-c4cnc(N)nc4)nc(N4CCOCC4)nc32)C1.Cl` [Example 310, (2R)-2-amino-1-{(3S)-3-[4-(2-aminopyrimidin-5-yl)-2-(morpholin-4-yl)-5,6-dihydro-7H-pyrrolo[2,3-d]pyrimidin-7-yl]-3-methylpyrrolidin-1-yl}-3-methylbutan-1-one hydrochloride], for which the “PI3KA_Act Ki” value worked out at 0.022 nM.

Take `CN1CC[C@@H](OC(=O)N2CC[C@](C)(N3CCc4c(-c5cnc(N)nc5)nc(N5CCOCC5)nc43)C2)C1` [Example 416, (3R)-1-methylpyrrolidin-3-yl (3S)-3-[4-(2-aminopyrimidin-5-yl)-2-(morpholin-4-yl)-5,6-dihydro-7H-pyrrolo[2,3-d]pyrimidin-7-yl]-3-methylpyrrolidine-1-carboxylate]: the “PI3KA_Act Ki” value is under 0.018 nM.

As for `C[C@H]1COCCN1c1nc(-c2cnc(N)nc2)c2c(n1)N(C1(C)CN(S(N)(=O)=O)C1)CC2` [Example 219], the “PI3KA_Act Ki” value was 0.037 nM.

As to `CNC(=O)N1CC(C)(N2CCc3c(-c4cnc(N)nc4)nc(N4CCOC[C@@H]4C)nc32)C1` [Example 462, 3-{4-(2-aminopyrimidin-5-yl)-2-[(3S)-3-methylmorpholin-4-yl]-5,6-dihydro-7H-pyrrolo[2,3-d]pyrimidin-7-yl}-N,3-dimethylazetidine-1-carboxamide], the “PI3KA_Act Ki” value turned out to be 0.057 nM.

In the case of `C[C@]1(N2CCc3c(-c4cnc(N)nc4)nc(N4CCOCC4)nc32)CCN(C(=O)CC2CC2)C1` [Example 323, 1-{(3S)-3-[4-(2-aminopyrimidin-5-yl)-2-(morpholin-4-yl)-5,6-dihydro-7H-pyrrolo[2,3-d]pyrimidin-7-yl]-3-methylpyrrolidin-1-yl}-2-cyclopropylethanone], the “PI3KA_Act Ki” value was under 0.018 nM.

Regarding `C[C@]1(N2CCc3c(-c4cnc(N)nc4)nc(N4CCOCC4)nc32)CCNC1.Cl` [Example 253, 5-{7-[(3S)-3-methylpyrrolidin-3-yl]-2-(morpholin-4-yl)-6,7-dihydro-5H-pyrrolo[2,3-d]pyrimidin-4-yl}pyrimidin-2-amine hydrochloride], the “PI3KA_Act Ki” value is reported as 0.160 nM.

For `CC1(OC(=O)N2CC[C@](C)(N3CCc4c(-c5cnc(N)nc5)nc(N5CCOCC5)nc43)C2)CNC1.Cl` [Example 414, 3-methylazetidin-3-yl (3S)-3-[4-(2-aminopyrimidin-5-yl)-2-(morpholin-4-yl)-5,6-dihydro-7H-pyrrolo[2,3-d]pyrimidin-7-yl]-3-methylpyrrolidine-1-carboxylate hydrochloride], the “PI3KA_Act Ki” value is given as 0.039 nM.

Consider `CP(C)(=O)N1CC(N2CCc3c(-c4cnc(N)nc4)nc(N4CCOCC4)nc32)C1` [Example 189], for which the “PI3KA_Act Ki” value is 1.162 nM.

Consider `C[C@]1(N2CCc3c(-c4cnc(N)nc4)nc(N4CCOCC4)nc32)CCN(C(=O)[C@@H]2CCCN2)C1.Cl` [Example 377, {(3S)-3-[4-(2-aminopyrimidin-5-yl)-2-(morpholin-4-yl)-5,6-dihydro-7H-pyrrolo[2,3-d]pyrimidin-7-yl]-3-methylpyrrolidin-1-yl}[(2S)-pyrrolidin-2-yl]methanone hydrochloride], for which the “PI3KA_Act Ki” value is listed as 0.026 nM.

On to `CC(=O)N1CC(S(=O)(=O)N2CC(N3CCc4c(-c5cnc(N)nc5)nc(N5CCOC[C@@H]5C)nc43)C2)C1` [Example 223], for which the “PI3KA_Act Ki” value came to 0.393 nM.

Consider `CN(C)CC(=O)N1CC[C@@](C)(N2CCc3c(-c4cnc(N)nc4)nc(N4CCOCC4)nc32)C1` [Example 300, 1-{(3R)-3-[4-(2-aminopyrimidin-5-yl)-2-(morpholin-4-yl)-5,6-dihydro-7H-pyrrolo[2,3-d]pyrimidin-7-yl]-3-methylpyrrolidin-1-yl}-2-(dimethylamino) ethanone], for which the “PI3KA_Act Ki” value is given as 0.669 nM.

On to `CC1(C(=O)N2CC(N3CCc4c(-c5cnc(N)nc5)nc(N5CCOCC5)nc43)C2)CC1` [Example 245, {3-[4-(2-aminopyrimidin-5-yl)-2-(morpholin-4-yl)-5,6-dihydro-7H-pyrrolo[2,3-d]pyrimidin-7-yl]azetidin-1-yl}(1-methylcyclopropyl) methanone], for which the “PI3KA_Act Ki” value turned out to be 4.212 nM.

With `C[C@]1(N2CCc3c(-c4cnc(N)nc4)nc(N4CCOCC4)nc32)CCN(C(=O)C2CC(O)C2)C1` (stereo partly drawn) [Example 345, {(3S)-3-[4-(2-aminopyrimidin-5-yl)-2-(morpholin-4-yl)-5,6-dihydro-7H-pyrrolo[2,3-d]pyrimidin-7-yl]-3-methylpyrrolidin-1-yl}(3-hydroxycyclobutyl) methanone], the “PI3KA_Act Ki” value worked out at 0.028 nM.

For the molecule `CC1(N2CCc3c(-c4cnc(N)nc4)nc(N4CCOCC4)nc32)CN(S(C)(=O)=O)C1` [Example 209], the “PI3KA_Act Ki” value is reported as 0.045 nM.

With `C[C@]1(N2CCc3c(-c4cnc(N)nc4)nc(N4CCOCC4)nc32)CCN(C(=O)C2CNC2)C1.Cl` [Example 349, {(3S)-3-[4-(2-aminopyrimidin-5-yl)-2-(morpholin-4-yl)-5,6-dihydro-7H-pyrrolo[2,3-d]pyrimidin-7-yl]-3-methylpyrrolidin-1-yl}(azetidin-3-yl)methanone hydrochloride], the “PI3KA_Act Ki” value was 0.026 nM.

On to `C[C@H]1COCCN1c1nc(-c2cnc(N)nc2)c2c(n1)N(C1(C)CN(C(=O)C(C)(C)O)C1)CC2` [Example 455, 1-(3-{4-(2-aminopyrimidin-5-yl)-2-[(3S)-3-methylmorpholin-4-yl]-5,6-dihydro-7H-pyrrolo[2,3-d]pyrimidin-7-yl}-3-methylazetidin-1-yl)-2-hydroxy-2-methylpropan-1-one], for which the “PI3KA_Act Ki” value is listed as 0.187 nM.

Take `C[C@H]1COCCN1c1nc(-c2cnc(N)nc2)c2c(n1)N([C@@]1(C)CCN(C(=O)[C@H](N)C(F)(F)F)C1)CC2.Cl` [Example 491, (2S)-2-amino-1-[(3S)-3-{4-(2-aminopyrimidin-5-yl)-2-[(3S)-3-methylmorpholin-4-yl]-5,6-dihydro-7H-pyrrolo[2,3-d]pyrimidin-7-yl}-3-methylpyrrolidin-1-yl]-3,3,3-trifluoropropan-1-one hydrochloride]: the “PI3KA_Act Ki” value was determined as 0.050 nM.

For the molecule `C[C@H]1COCCN1c1nc(-c2cnc(N)nc2)c2c(n1)N(C1(C)CCN(S(C)(=O)=O)C1)CC2` (some centres unmarked) [Example 164], the “PI3KA_Act Ki” value came to 0.030 nM.

Take `CNS(=O)(=O)N1CC(N2CCc3c(-c4cnc(N)nc4)nc(N4CCOCC4)nc32)C1` [Example 147]: the “PI3KA_Act Ki” value was 0.064 nM.

On to `Cn1cnc(S(=O)(=O)N2CC(N3CCc4c(-c5cnc(N)nc5)nc(N5CCOCC5)nc43)C2)c1` [Example 179], for which the “PI3KA_Act Ki” value is 0.344 nM.

Regarding `C[C@]1(N2CCc3c(-c4cnc(N)nc4)nc(N4CCOCC4)nc32)CCN(C(=O)[C@@H]2C[C@H]2F)C1` [Example 333, {(3S)-3-[4-(2-aminopyrimidin-5-yl)-2-(morpholin-4-yl)-5,6-dihydro-7H-pyrrolo[2,3-d]pyrimidin-7-yl]-3-methylpyrrolidin-1-yl}[(1S,2R)-2-fluorocyclopropyl] methanone], the “PI3KA_Act Ki” value was under 0.018 nM.

As for `C[C@H]1COCCN1c1nc(-c2cnc(N)nc2)c2c(n1)N(C1CN(C(=O)C(C)(C)O)C1)CC2` [Example 454, 1-(3-{4-(2-aminopyrimidin-5-yl)-2-[(3S)-3-methylmorpholin-4-yl]-5,6-dihydro-7H-pyrrolo[2,3-d]pyrimidin-7-yl}azetidin-1-yl)-2-hydroxy-2-methylpropan-1-one], the “PI3KA_Act Ki” value is listed as 0.387 nM.

Take `C[C@@H](O)C(=O)N1CC[C@@](C)(N2CCc3c(-c4cnc(N)nc4)nc(N4CCOCC4)nc32)C1` [Example 269, (2R)-1-{(3R)-3-[4-(2-aminopyrimidin-5-yl)-2-(morpholin-4-yl)-5,6-dihydro-7H-pyrrolo[2,3-d]pyrimidin-7-yl]-3-methylpyrrolidin-1-yl}-2-hydroxypropan-1-one]: the “PI3KA_Act Ki” value came out at 0.222 nM.

The values above are taken from patent publication US9260439B2, “Dihydropyrrolopyrimidine derivatives” (PFIZER INC., priority 2014, dated 2016).
